US20120238488A1, “COMPOUNDS AND METHODS FOR TREATING NEOPLASIA” (priority 2009, published 2012)

System: PC-3 xenografts (prostate adenocarcinoma, grade IV)
Assay: PC-3 xenograft anti-tumor activity
Method: Compound 56 was tested for its anti-tumor activity in PC-3 and A549 xenografts. To generate xenografts in mice, exponentially growing cultures of approximately 10^6 PC-3 cells (prostate adenocarcinoma, grade IV) or A549 cells (lung carcinoma) were injected subcutaneously according to the British practice of bilateral trocar implants at the axillary region of 6-8 weeks old male (PC-3 cells) or female (A549 cells) Nod/Scid mice. The two tumor cell inoculums were added together for each mouse, thus producing a tumor burden per mouse value for data analysis. The advantage of the British system is reduced mouse-to-mouse variability and, thus, the ability to decrease the total number of animals per group, with five or six being sufficient for accurate data analysis of tumor response and evaluation of toxicities.
Tumor volume was calculated according to the formula [(axb2)/2], where a=length and b=width of the tumor as measured with a vernier's caliper (measurements were performed twice a week). All administrations were intraperitoneal. Treated animals received a single injection according to the schedule described for each study (see below). In addition to tumor volume, the parameter, % DT/DC, was calculated, where DT=T−Do and DC=C−Do (Do is the average tumor volume at the beginning of the treatment; T and C are the volumes of treated and untreated tumors, respectively, at a specified day). Optimal DT/DC value was used as a measure of drug activity. Losses of weight, neurological disorders and behavioral and dietary changes were also recorded as indicators of toxicity (side effects). The experiment was terminated when tumor size in untreated animals reached a volume of about 1000-1500 mm^3. All animals were treated according to Greek laws (2015/92), guidelines of the European Union and the European council (86/609 and ETS123, respectively), and Compliance with Standards for Human Care and Use of Laboratory Animals, NIH, USA (Assurance No. A5736-01).
In order to develop PC-3 xenografts, male mice 6-8 weeks old were inoculated bilateral at the two axilla regions at day 0.
Compound 56 was administered intraperitoneallly at the following dpis: d13, d14, d15, d16, d17, d20, d21, d22, d23, d24, d27, d28, 29, d30.

## C[C@]12CCC(=NOC3CCNC3)CC1CCC1C2CC[C@]2(C)C(=O)CCC12 (stereo partly drawn) [Compound 56, (10S,13S)-10,13-dimethyl-3-(pyrrolidin-3-yloxyimino)tetradecahydro-1H-cyclopenta[a]phenanthren-17(2H)-one]
17 mgk intraperitoneal
  post mortem analysis on excised PC-3 tumors: tumor growth inhibition: statistical significant tumor growth inhibition
PC-3 xenograft mice, compound 56 17 mgk, digoxin 2 mgk, intraperitoneal
  toxicity (body weight, deaths): not toxic
PC-3 xenografts, 17 mgk intraperitoneal
  metastases versus control group (post mortem): suppression of bone lymph node and front axilla metastases
PC-3 xenografts, 17 mgk intraperitoneal, day 34, p=6×10^−6
  optimal DT/DC: 48.71%
mouse, in vivo
  anti-tumor activity in PC-3 xenografts (FIG. 2A): has anti-tumor activities
